In ChEMBL document CHEMBL3525947, “Potential role of UGT1A4 promoter SNPs in anastrozole pharmacogenomics” (Drug Metab Dispos, 2013) one finds Retention_time, Drug metabolism and IC50 data, which are given here for four molecules.

What all share (assay type): ADME
Series [1] deals with Liver microsome. Kind of series: Drug metabolism human liver microsomes treated with 100 uM anastrozole assessed as retention time by mass spectrometry analysis. Background: Liver microsomes are vesicles of endoplasmic reticulum, rich in cytochrome P450 enzymes.
The subject of series [2] is Liver microsome. Kind of series: Drug metabolism human liver microsomes treated with 100 uM lamotrigine assessed as retention time by mass spectrometry analysis.
Series [3] concerns Liver microsome. Briefly: Drug metabolism in human liver microsomes assessed as glucuronide formation per mg protein by mass spectrometry analysis.
The subject of series [4] is Liver microsome. Briefly: Drug metabolism in human liver microsomes assessed as retention time at 100 uM by mass spectrometry analysis.
A short description of series [5]: Drug metabolism in human liver microsomes assessed as UGT1A4 -217T>G(TT) variant-mediated compound glucuronidation at 100 uM by mass spectrometry analysis.
Series [6] in a line: Drug metabolism in human liver microsomes assessed as UGT1A4 -163G>A(AG) mutant-mediated compound glucuronidation at 100 uM by mass spectrometry analysis.
Series [7] in a line: Drug metabolism in human liver microsomes assessed as UGT1A4 70C>A (AA) mutant-mediated compound glucuronidation at 100 uM by mass spectrometry analysis.
Series [8] is described as follows: Drug metabolism in human liver microsomes assessed as UGT1A4 -217T>G(TG) variant-mediated compound glucuronidation at 100 uM by mass spectrometry analysis.
Series [9] in a line: Drug metabolism in human liver microsomes assessed as UGT1A4 -36G>A (AG) variant-mediated compound glucuronidation at 100 uM by mass spectrometry analysis.
Series [10] can be described thus: Drug metabolism in human liver microsomes assessed as UGT1A4 70C>A (AC) mutant-mediated compound glucuronidation at 100 uM by mass spectrometry analysis.
Series [11] is described as follows: Drug metabolism in human liver microsomes assessed as UGT1A4 142T>G (TT) mutant-mediated compound glucuronidation at 100 uM by mass spectrometry analysis.
The target of series [12] is T1, UDP-glucuronosyltransferase 1A4 (Homo sapiens, UniProt P22310).
T1 sequence (P22310 whole entry): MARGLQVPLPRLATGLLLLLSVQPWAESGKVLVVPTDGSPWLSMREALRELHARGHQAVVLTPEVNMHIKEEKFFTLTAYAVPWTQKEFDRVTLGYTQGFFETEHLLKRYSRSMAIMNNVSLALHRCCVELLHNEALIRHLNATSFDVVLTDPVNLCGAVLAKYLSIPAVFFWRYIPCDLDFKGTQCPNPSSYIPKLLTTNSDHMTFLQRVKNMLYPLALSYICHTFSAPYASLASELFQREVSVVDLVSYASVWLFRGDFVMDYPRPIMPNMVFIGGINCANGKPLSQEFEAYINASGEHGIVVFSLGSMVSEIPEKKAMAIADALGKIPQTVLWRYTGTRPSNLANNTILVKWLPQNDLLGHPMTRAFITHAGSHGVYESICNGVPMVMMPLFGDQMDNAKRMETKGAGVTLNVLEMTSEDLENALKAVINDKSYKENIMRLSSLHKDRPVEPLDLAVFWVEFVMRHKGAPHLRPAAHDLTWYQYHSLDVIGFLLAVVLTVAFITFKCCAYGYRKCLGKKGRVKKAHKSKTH
Briefly: Drug metabolism assessed as hecogenin-mediated inhibition of human recombinant UGT1A4-catalyzed anastrozole glucuronidation after 90 mins.

Series [13] in a line: Drug metabolism in human liver microsomes assessed as UGT1A4 -219C>T(TT) mutant-mediated compound glucuronidation at 100 uM by mass spectrometry analysis.
Series [14] is described as follows: Drug metabolism in human liver microsomes assessed as UGT1A4 142T>G (GG) mutant-mediated compound glucuronidation at 100 uM by mass spectrometry analysis.
A short description of series [15]: Drug metabolism in human liver microsomes assessed as UGT1A4 -163G>A(GG) variant-mediated compound glucuronidation at 100 uM by mass spectrometry analysis.
Series [16] can be described thus: Drug metabolism in human liver microsomes assessed as UGT1A4 -217T>G(GG) mutant-mediated compound glucuronidation at 100 uM by mass spectrometry analysis.
The subject of series [17] is Liver microsome. Briefly: Drug metabolism in pooled human liver microsomes assessed as IC50 for hecogenin-mediated inhibition of anastrozole glucuronidation after 90 mins. The settings on record: 1.5 h.
Series [18] is described as follows: Drug metabolism in human liver microsomes assessed as UGT1A4 70C>A (CC) mutant-mediated compound glucuronidation at 100 uM by mass spectrometry analysis.
Series [19] is described as follows: Drug metabolism in human liver microsomes assessed as UGT1A4 -163G>A(AA) variant-mediated compound glucuronidation at 100 uM by mass spectrometry analysis.
Series [20] in a line: Drug metabolism in human liver microsomes assessed as UGT1A4 -36G>A (GG) mutant-mediated compound glucuronidation at 100 uM by mass spectrometry analysis.
Series [21] can be described thus: Drug metabolism in human liver microsomes assessed as UGT1A4 -36G>A (AA) variant-mediated compound glucuronidation at 100 uM by mass spectrometry analysis.
A short description of series [22]: Drug metabolism in human liver microsomes assessed as UGT1A4 -219C>T(CC) mutant-mediated compound glucuronidation at 100 uM by mass spectrometry analysis.
Series [23] can be described thus: Drug metabolism in human liver microsomes assessed as UGT1A4 -219C>T(CT) mutant-mediated compound glucuronidation at 100 uM by mass spectrometry analysis.
The nature of series [24]: Drug metabolism in human liver microsomes assessed as UGT1A4 142T>G (TG) mutant-mediated compound glucuronidation at 100 uM by mass spectrometry analysis.

In the case of `CC(C)(C#N)c1cc(Cn2c[n+]([C@@H]3O[C@H](C(=O)[O-])[C@@H](O)[C@H](O)[C@H]3O)cn2)cc(C(C)(C)C#N)c1`, the Retention_time in the series with Liver microsome [1] amounted to 2.86 min.
On to `Nc1nc(N)[n+]([C@@H]2O[C@H](C(=O)[O-])[C@@H](O)[C@H](O)[C@H]2O)nc1-c1cccc(Cl)c1Cl`, for which the Retention_time in the series with Liver microsome [2] is reported as 1.34 min.
`Nc1nnc(-c2cccc(Cl)c2Cl)c(N)n1` [LAMOTRIGINE]: the Drug metabolism result with Liver microsome [3] is recorded as “metabolite_detected”. The Retention_time in the series with Liver microsome [4] was 1.63 min.
What is called IC50 is the midpoint of a concentration-inhibition curve. `CC(C)(C#N)c1cc(Cn2cncn2)cc(C(C)(C)C#N)c1` [ANASTROZOLE]: the Drug metabolism in [5] worked out at 0.3 pmol/min/µg; in series [6] it was 0.7 pmol/min/µg; in series [7], 0.8 pmol/min/µg; in series [8], 1.5 pmol/min/µg; in series [9], 1 pmol/min/µg; in series [10], 0.3 pmol/min/µg. Moreover, the Drug metabolism in series [11] amounted to 0.5 pmol/min/µg; in the series with Liver microsome [3], 0.023 pmol/min; in [13], 1 pmol/min/µg; in series [14] it was 0.3 pmol/min/µg; in [15] it was 0.4 pmol/min/µg; in series [16] it was 1.9 pmol/min/µg. The Drug metabolism is 0.4 pmol/min/µg in series [18]; 0.8 pmol/min/µg in series [19]; 0.3 pmol/min/µg in series [20]; 1.3 pmol/min/µg in series [21]; 0.4 pmol/min/µg in series [22]; 0.9 pmol/min/µg in series [23]. Further, in series [24], the Drug metabolism worked out at 0.3 pmol/min/µg. For the same molecule, the half-inhibitory concentration (IC50) in series [12] was determined as 4.72 µM; in the series on Liver microsome [17] it was 15 µM. The Retention_time in the series with Liver microsome [4] is 3.95 min.
